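Five compound concentrations were applied to cells in 96-well plates for 48 hours; endpoints were derived by simple linear interpolation of the resulting dose-response curve. TGI: total growth inhibition.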
Experiments:
Experiment in all cases: growth of human tumour cells (NCI), 48 h
SF-539 CNS = test system: SF-539 CNS
MDA-MB-231 breast = test system: MDA-MB-231 breast
LOX IMVI melanoma = test system: LOX IMVI melanoma
TK-10 renal = test system: TK-10 renal
NCI-H522 lung = test system: NCI-H522 lung
SW-620 colon = test system: SW-620 colon
OVCAR-3 ovarian = test system: OVCAR-3 ovarian
SN12C renal = test system: SN12C renal
NCI-H460 lung = test system: NCI-H460 lung
SR leukemia = test system: SR leukemia
OVCAR-4 ovarian = test system: OVCAR-4 ovarian
NCI-H23 lung = test system: NCI-H23 lung
K-562 leukemia = test system: K-562 leukemia
SNB-19 CNS = test system: SNB-19 CNS
UO-31 renal = test system: UO-31 renal
CCRF-CEM leukemia = test system: CCRF-CEM leukemia
NCI/ADR-RES ovarian = test system: NCI/ADR-RES ovarian
MOLT-4 leukemia = test system: MOLT-4 leukemia
CAKI-1 renal = test system: CAKI-1 renal
HOP-92 NSCLC = test system: HOP-92 NSCLC
786-0 renal = test system: 786-0 renal
HT29 colon = test system: HT29 colon
HCC-2998 colon = test system: HCC-2998 colon
SNB-75 CNS = test system: SNB-75 CNS
HS 578T breast = test system: HS 578T breast
SK-MEL-28 melanoma = test system: SK-MEL-28 melanoma
PC-3 prostate = test system: PC-3 prostate
OVCAR-8 ovarian = test system: OVCAR-8 ovarian
SK-OV-3 ovarian = test system: SK-OV-3 ovarian
NCI-H226 lung = test system: NCI-H226 lung
SF-295 CNS = test system: SF-295 CNS
COLO 205 colon = test system: COLO 205 colon
EKVX NSCLC = test system: EKVX NSCLC
RPMI-8226 leukemia = test system: RPMI-8226 leukemia
U251 CNS = test system: U251 CNS
SK-MEL-2 melanoma = test system: SK-MEL-2 melanoma
OVCAR-5 ovarian = test system: OVCAR-5 ovarian
HCT-15 colon = test system: HCT-15 colon
HCT-116 colon = test system: HCT-116 colon
A498 renal = test system: A498 renal
M14 melanoma = test system: M14 melanoma
ACHN renal = test system: ACHN renal
MDA-MB-435 = test system: MDA-MB-435
HOP-62 NSCLC = test system: HOP-62 NSCLC
IGROV1 ovarian = test system: IGROV1 ovarian
T-47D breast = test system: T-47D breast
KM12 colon = test system: KM12 colon
SK-MEL-5 melanoma = test system: SK-MEL-5 melanoma
SF-268 CNS = test system: SF-268 CNS

## Cc1cc(-c2no[n+]([O-])c2-c2cc(C)sc2S(C)(=O)=O)c(S(C)(=O)=O)s1
SF-539 CNS
  TGI: > 100 µM
MDA-MB-231 breast
  TGI: > 100 µM
LOX IMVI melanoma
  TGI: > 100 µM
TK-10 renal
  TGI: > 100 µM
NCI-H522 lung
  TGI: > 100 µM
SW-620 colon
  TGI: > 100 µM
OVCAR-3 ovarian
  TGI: > 100 µM
SN12C renal
  TGI: > 100 µM
NCI-H460 lung
  TGI: > 100 µM
SR leukemia
  TGI: > 100 µM
OVCAR-4 ovarian
  TGI: > 100 µM
NCI-H23 lung
  TGI: > 100 µM
K-562 leukemia
  TGI: > 100 µM
SNB-19 CNS
  TGI: 75.1 µM
UO-31 renal
  TGI: > 100 µM
CCRF-CEM leukemia
  TGI: > 100 µM
NCI/ADR-RES ovarian
  TGI: > 100 µM
MOLT-4 leukemia
  TGI: > 100 µM
CAKI-1 renal
  TGI: > 100 µM
HOP-92 NSCLC
  TGI: > 100 µM
786-0 renal
  TGI: > 100 µM
HT29 colon
  TGI: > 100 µM
HCC-2998 colon
  TGI: > 100 µM
SNB-75 CNS
  TGI: > 100 µM
HS 578T breast
  TGI: > 100 µM
SK-MEL-28 melanoma
  TGI: > 100 µM
PC-3 prostate
  TGI: > 100 µM
OVCAR-8 ovarian
  TGI: > 100 µM
SK-OV-3 ovarian
  TGI: > 100 µM
NCI-H226 lung
  TGI: > 100 µM
SF-295 CNS
  TGI: > 100 µM
COLO 205 colon
  TGI: > 100 µM
EKVX NSCLC
  TGI: > 100 µM
RPMI-8226 leukemia
  TGI: > 100 µM
U251 CNS
  TGI: > 100 µM
SK-MEL-2 melanoma
  TGI: > 100 µM
OVCAR-5 ovarian
  TGI: > 100 µM
HCT-15 colon
  TGI: > 100 µM
HCT-116 colon
  TGI: > 100 µM
A498 renal
  TGI: > 100 µM
M14 melanoma
  TGI: > 100 µM
ACHN renal
  TGI: > 100 µM
MDA-MB-435
  TGI: > 100 µM
HOP-62 NSCLC
  TGI: > 100 µM
IGROV1 ovarian
  TGI: > 100 µM
T-47D breast
  TGI: > 100 µM
KM12 colon
  TGI: > 100 µM
SK-MEL-5 melanoma
  TGI: > 100 µM
SF-268 CNS
  TGI: > 100 µM

— PubChem BioAssay (NCI)
